Experiment [1] concerns opioid receptor delta (DOR). Put plainly: Expression of DOR in epidermis, tissue microarray immunohistochemical labeling. Type of experiment: cell-based, human. The settings on record: RHE treated with PMA at 2 μg, compared to non-treated RHE. How it is done:
The protein expression of the opioid receptor delta (DOR) was analyzed using a “tissue microarray” (TMA) composed of numerous skin-related cellular models in order to identify the best models for further studies.
Formaldehyde-fixed tissues were dehydrated in multiple baths with increasing concentration of ethanol and then embedded in “Paraplast X-tra” paraffin. The transversal sections were carried out using a microtome (5 μm thickness) and kept at room temperature until staining.
The sections were deparaffinized then the antigenic sites were retrieved using specific buffers (pH6 and pH9). The sections were then washed and incubated with hydrogen peroxide. After an additional washing step, the sections were incubated with the primary antibody (anti-DOR). […] After peroxidase-conjugated streptavidine and peroxidase substrate addition, nuclei were counter-stained with a solution of haematoxylin. The slices were washed in ultra-pure water and mounted in aqueous medium.
Sections were observed using a NIKON E400 microscope. Images were captured with a NIKON DS-Ri1 and processed with NIS-Elements 3.10 software.

In the next experiment the target is T1, delta2 opioid receptor (Mus musculus, UniProt P32300).
T1 construct: host or cells: unnamed cells 'bearing the delta2 opioid receptor'
Put plainly: Agonist effect at the delta2 opioid receptor (DOP), cell impedance. The conditions noted are these: percent of control specific agonist response (DPDPE). The experiment is classed as cell-based. Here is the method: Frozen spinach leaves were thawed and disrupted in fine particles a blender. This juice was further treated with ultrasounds to disrupt cells and proteins were recovered by acidic precipitation. These proteins were then digested by several enzymes, including pepsin and papain. The hydrolysate was purified (ultrafiltration), fractionated and stored before testing. Meanwhile, synthetic peptides were ordered from a manufacturer. The peptides and the hydrolysates were tested on cells bearing the delta2 opioid receptor and cell impedance was measured to evaluate the binding activity of the tested compounds (Law and Loh, 1993).
The EC50 values (concentration producing a half-maximal specific response) and IC50 values (concentration causing a half-maximal inhibition of the control specific agonist response) were determined by non-linear regression analysis of the concentration-response curves generated with mean replicate values using Hill equation curve fitting (Y=D+[(A D)/(1+(C/C50)nH)], where Y=specific response, D=minimum specific response, A=maximum specific response, C=compound concentration, and C50=EC50 or IC50, and nH=slope factor).

Experiment [2] relates to opioid receptor delta (DOR). Put plainly: Scoring of DOR1 expression in RHE stimulated with cytokines. Type of experiment: cell-based, human. The conditions noted are these: JAK inhibitor I tested at 10 μM. How it is done: In the present study, the effects of a peptide (YPLDLF, SEQ ID No 1) on the expression of opioid receptor delta (DOR) were researched on a reconstructed human epidermis (RHE) model under basal or stimulated conditions. More precisely, the RHE were stimulated by a mix of cytokines (IL-17+OSM+TNF-α) able to induce a strong inflammatory profile and a psoriatic phenotype in keratinocytes.
Reconstructed human epidermis (RHE) of 11 days old was prepared according to a derived method described by Poumay et al. (2004). These RHE were cultivated at 37° C. and 5% of CO2 in a specific maintenance medium.
The RHE treated under basal conditions were placed in assay medium containing or not (non-stimulated control) the peptide solutions and incubated for 54 hours. For inflammatory conditions, the RHE were placed in assay medium containing or not (stimulated control) the peptide solutions or the reference […] at 10 μM) and pre-incubated for 6 hours. The RHE were then stimulated with a mix of cytokines (IL-17+OSM+TNF-α at 3 ng/ml) and incubated for 48 hours. All experimental conditions were performed in n=3.
At the end of incubation, the supernatants were collected and the RHE were washed in phosphate buffered saline solution (PBS) for immunohistofluorescence analysis. […]

T1 sequence (P32300 whole entry): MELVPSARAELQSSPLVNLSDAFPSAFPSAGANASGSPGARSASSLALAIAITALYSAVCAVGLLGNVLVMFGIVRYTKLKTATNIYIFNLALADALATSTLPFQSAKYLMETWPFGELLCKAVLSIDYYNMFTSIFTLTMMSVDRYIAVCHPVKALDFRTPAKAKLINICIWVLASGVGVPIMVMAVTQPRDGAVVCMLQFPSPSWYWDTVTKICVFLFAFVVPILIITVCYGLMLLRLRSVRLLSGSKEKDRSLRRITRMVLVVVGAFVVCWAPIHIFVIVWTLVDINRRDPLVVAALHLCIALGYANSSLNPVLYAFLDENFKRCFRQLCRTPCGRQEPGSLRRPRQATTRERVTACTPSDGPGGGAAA

As for `CCCCCCCCCCCCCC(=O)O[C@@H]1[C@@H](C)[C@@]2(O)[C@@H](C=C(CO)C[C@]3(O)C(=O)C(C)=C[C@@H]23)[C@@H]2C(C)(C)[C@]12OC(C)=O` [PMA, Phorbol myristate acetate], the “expression of DOR” value in experiment [1] is given as “DOR was decreased after Phorbol myristate”.

Regarding “D-Penicillamine(2,5)-enkephalin [DPDPE, reference compound]”, at delta2 opioid receptor, the “A (Hill curve fit parameter)” value came out at 0.0 and the “D (Hill curve fit parameter)” value came to 95.8.

JAK inhibitor I [reference compound]: in experiment [2], the “inhibitory effect of the cytokine mix on OPRD1 expression” value is on record as “reversed”.

The values above are taken from patent US9107852B2, “Uses of agonists of delta opioid receptor in cosmetic and dermocosmetic field” (Induchem Holding AG, priority 2012, dated 2015).
